Measured values reported in patent publication US10544102B2, “Benzazepine dicarboxamide compounds with secondary amide function” (Hoffmann-La Roche Inc., priority 2017, dated 2020).

Tests used:
human TLR8 = target: T1, human TLR8 (Homo sapiens, UniProt Q9NR97); experiment: HEK-Blue human TLR8 cells NF-κB SEAP reporter assay; format: cell-based; settings: stimulation for 20 hours, Quanti Blue 640 nm
T1 construct: host or cells: HEK-Blue human TLR8 cells (HEK293-derived reporter line)
T1 sequence (Q9NR97 27-1041): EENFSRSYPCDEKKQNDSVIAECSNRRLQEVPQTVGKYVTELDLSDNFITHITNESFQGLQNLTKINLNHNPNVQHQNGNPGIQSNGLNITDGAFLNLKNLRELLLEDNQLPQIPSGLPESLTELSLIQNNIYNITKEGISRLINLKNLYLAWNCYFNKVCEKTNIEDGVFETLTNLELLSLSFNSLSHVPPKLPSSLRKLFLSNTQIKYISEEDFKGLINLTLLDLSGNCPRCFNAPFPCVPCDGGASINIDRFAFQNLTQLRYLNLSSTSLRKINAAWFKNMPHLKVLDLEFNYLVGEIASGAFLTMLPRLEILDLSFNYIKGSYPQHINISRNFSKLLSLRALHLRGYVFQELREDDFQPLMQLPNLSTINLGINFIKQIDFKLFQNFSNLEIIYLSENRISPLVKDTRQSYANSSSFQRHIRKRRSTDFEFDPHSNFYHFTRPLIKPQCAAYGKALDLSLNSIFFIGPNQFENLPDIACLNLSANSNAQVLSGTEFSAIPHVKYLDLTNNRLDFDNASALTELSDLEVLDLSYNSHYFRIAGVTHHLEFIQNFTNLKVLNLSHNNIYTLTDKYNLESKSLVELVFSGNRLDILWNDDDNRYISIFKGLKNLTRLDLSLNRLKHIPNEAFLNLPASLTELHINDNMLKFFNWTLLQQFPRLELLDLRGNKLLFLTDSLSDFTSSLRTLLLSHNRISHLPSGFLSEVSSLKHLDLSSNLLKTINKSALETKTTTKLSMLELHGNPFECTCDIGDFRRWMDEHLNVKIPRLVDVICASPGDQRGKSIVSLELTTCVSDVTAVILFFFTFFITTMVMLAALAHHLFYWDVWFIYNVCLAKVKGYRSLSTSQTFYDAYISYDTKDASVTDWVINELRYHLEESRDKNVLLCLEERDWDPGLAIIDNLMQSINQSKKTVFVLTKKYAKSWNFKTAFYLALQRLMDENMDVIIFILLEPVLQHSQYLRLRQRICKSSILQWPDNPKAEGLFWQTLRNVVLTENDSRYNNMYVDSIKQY
Description: (§1) For TLR8 and TLR7 activity testing, HEK-Blue human TLR8 or TLR7 cells (Invivogen, San Diego, Calif., USA) are used, respectively. These cells are designed for studying the stimulation of human TLR8 or TLR7 by monitoring the activation of NF-κB. A SEAP (secreted embryonic alkaline phosphatase) reporter gene is placed under the control of the IFN-b minimal promoter fused to five NF-κB and AP-1-binding sites. Therefore the reporter expression is regulated by the NF-κB promoter upon stimulation of human TLR8 or TLR7 for 20 hours. The cell culture supernatant SEAP reporter activity was determined using Quanti Blue kit (Invivogen, San Diego, Calif., USA) at a wavelength of 640 nm, a detection medium that turns purple/blue in the presence of alkaline phosphatase. EC50 values were determined using Activity Base analysis (ID Business Solution, Limited).

human TLR7 = target: T2, human TLR7 (Homo sapiens, UniProt Q9NYK1); experiment: HEK-Blue human TLR7 cells NF-κB SEAP reporter assay; format: cell-based; settings: stimulation for 20 hours, Quanti Blue 640 nm
T2 construct: host or cells: HEK-Blue human TLR7 cells (HEK293-derived reporter line)
T2 sequence (Q9NYK1 27-1049): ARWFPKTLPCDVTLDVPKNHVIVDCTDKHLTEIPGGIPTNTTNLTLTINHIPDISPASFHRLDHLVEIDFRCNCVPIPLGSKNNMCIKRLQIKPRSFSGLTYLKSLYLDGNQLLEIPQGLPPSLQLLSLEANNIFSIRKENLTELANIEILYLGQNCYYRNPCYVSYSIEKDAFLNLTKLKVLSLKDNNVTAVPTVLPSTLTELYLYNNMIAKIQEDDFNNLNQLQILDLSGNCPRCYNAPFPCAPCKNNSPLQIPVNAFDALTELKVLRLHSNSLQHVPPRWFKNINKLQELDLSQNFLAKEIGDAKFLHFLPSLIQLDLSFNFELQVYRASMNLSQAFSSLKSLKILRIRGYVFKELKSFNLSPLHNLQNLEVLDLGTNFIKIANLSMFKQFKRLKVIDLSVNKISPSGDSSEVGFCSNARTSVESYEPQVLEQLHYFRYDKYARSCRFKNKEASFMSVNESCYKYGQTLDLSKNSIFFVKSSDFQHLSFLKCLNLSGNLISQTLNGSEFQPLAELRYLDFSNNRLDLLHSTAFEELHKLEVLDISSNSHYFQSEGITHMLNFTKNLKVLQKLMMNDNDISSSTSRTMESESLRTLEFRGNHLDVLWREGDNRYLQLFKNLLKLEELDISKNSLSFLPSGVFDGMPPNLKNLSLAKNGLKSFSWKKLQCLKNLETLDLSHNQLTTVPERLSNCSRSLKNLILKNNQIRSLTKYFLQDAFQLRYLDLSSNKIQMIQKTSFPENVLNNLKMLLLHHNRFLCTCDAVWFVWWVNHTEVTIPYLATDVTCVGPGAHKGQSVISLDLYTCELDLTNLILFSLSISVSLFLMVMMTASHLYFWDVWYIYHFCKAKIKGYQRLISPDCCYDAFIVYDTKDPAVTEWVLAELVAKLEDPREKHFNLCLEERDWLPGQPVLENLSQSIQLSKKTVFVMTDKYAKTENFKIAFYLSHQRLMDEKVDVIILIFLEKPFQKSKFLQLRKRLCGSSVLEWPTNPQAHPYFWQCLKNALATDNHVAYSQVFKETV
Description: as §1

Compound | EC50 (human TLR8) [nM] | EC50 (human TLR7) [nM]
CCCN(CCC)C(=O)C1=Cc2ccc(C(=O)NC3CCN(c4ccccc4)C3)cc2N=C(N)C1 (stereo not shown) [Example 24, 2-Amino-N8-(1-phenylpyrrolidin-3-yl)-N4,N4-dipropyl-3H-1-benzazepine-4,8-dicarboxamide] | 19 | > 100000
CCCN(CCC)C(=O)C1=Cc2ccc(C(=O)N[C@H]3CCN(c4ccccc4)C3)cc2N=C(N)C1 [Example 25, 2-Amino-N8-[(3S)-1-phenylpyrrolidin-3-yl]-N4,N4-dipropyl-3H-1-benzazepine-4,8-dicarboxamide] | 10 | > 100000
CCCN(CCC)C(=O)C1=Cc2ccc(C(=O)NC3CCC(CNc4ccccc4)CC3)cc2N=C(N)C1 (stereo not shown) [Example 26, 2-Amino-N8-[4-(anilinomethyl)cyclohexyl]-N4,N4-dipropyl-3H-1-benzazepine-4,8-dicarboxamide] | 9 | > 100000

The next lines start with the values.

EC50 (human TLR8) [nM] | EC50 (human TLR7) [nM] | Compound
7 | > 100000 | CCCN(CCC)C(=O)C1=Cc2ccc(C(=O)NC3CC(CNc4ccccc4)C3)cc2N=C(N)C1 (stereo not shown) [Example 27, 2-Amino-N8-[3-(anilinomethyl)cyclobutyl]-N4,N4-dipropyl-3H-1-benzazepine-4,8-dicarboxamide]
10 | > 100000 | CCCN(CCC)C(=O)C1=Cc2ccc(C(=O)N[C@@H]3CCN(c4ccccc4)C3)cc2N=C(N)C1 [Example 28, 2-Amino-N8-[(3R)-1-phenylpyrrolidin-3-yl]-N4,N4-dipropyl-3H-1-benzazepine-4,8-dicarboxamide]
